In BindingDB's records for doi:10.7270/Q2M32T6M (Vanderbilt Screening Center for GPCRs, Ion Channels and …, 2009):
pEC50: −log10 of the molar value.

What follows are molecules tested against T1, Solute carrier family 12 member 5 (Homo sapiens, UniProt Q9H2X9) (assay: concentration-response of KCC2 transport modulators – cell-based, HEK293 KCC2, FluoZin-2 fluorescence, dose response (AID 1736)). Conditions: not given.
T1 sequence (Q9H2X9 whole entry): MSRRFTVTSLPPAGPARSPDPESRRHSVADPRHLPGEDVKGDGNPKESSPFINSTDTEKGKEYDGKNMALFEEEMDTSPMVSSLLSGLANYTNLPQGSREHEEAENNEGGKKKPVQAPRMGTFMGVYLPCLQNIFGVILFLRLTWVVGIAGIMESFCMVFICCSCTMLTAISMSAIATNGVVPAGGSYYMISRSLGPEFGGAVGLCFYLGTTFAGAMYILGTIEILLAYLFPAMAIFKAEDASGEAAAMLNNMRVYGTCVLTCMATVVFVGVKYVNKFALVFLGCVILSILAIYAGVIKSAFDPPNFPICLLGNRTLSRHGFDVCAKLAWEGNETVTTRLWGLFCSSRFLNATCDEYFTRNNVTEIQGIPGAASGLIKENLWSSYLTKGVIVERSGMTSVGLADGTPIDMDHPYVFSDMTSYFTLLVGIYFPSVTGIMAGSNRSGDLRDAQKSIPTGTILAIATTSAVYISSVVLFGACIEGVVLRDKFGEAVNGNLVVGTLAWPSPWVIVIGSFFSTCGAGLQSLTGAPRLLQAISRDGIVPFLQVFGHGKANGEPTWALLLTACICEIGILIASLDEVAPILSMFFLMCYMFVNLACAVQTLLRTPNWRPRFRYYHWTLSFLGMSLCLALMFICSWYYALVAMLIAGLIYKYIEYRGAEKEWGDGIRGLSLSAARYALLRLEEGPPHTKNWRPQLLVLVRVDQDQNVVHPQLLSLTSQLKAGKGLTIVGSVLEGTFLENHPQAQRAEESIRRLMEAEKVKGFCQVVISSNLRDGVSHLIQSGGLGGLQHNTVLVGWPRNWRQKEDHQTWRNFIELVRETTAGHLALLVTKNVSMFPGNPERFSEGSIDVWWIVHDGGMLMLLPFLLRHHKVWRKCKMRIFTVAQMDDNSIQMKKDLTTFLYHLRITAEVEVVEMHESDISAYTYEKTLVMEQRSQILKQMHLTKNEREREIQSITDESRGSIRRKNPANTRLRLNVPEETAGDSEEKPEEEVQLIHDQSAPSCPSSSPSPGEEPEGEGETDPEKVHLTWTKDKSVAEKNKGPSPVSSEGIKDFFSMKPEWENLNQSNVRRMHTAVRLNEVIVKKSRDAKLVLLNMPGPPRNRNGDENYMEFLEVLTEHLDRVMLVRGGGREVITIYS

Compared with `CC12CC3(C)CC(C)(C1)CC(C(=O)NC(=S)N1CCCC1)(C2)C3` [3,5,7-trimethyl-N-pyrrolidin-1-ylcarbothioyl-adamantane-1-carboxamide], `O=C(OCC(=O)N1CCc2ccccc2C1)c1ccc(N2CCOCC2)c([N+](=O)[O-])c1` [4-(4-morpholinyl)-3-nitrobenzoic acid [2-(3,4-dihydro-1H-isoquinolin-2-yl)-2-oxoethyl] ester] is 1.33 log units lower in pEC50: 6.27 for the first, 4.94 for the second. The first is the more potent here.

First: CCCCCC(=O)Cc1cc(O)cc2c1C(=O)Oc1cc(O)c(C(=O)O)c(CCCCC)c1O2 [3,8-Dihydroxy-11-oxo-1-(2-oxo-heptyl)-6-pentyl-11H-dibenzo[b,e][1,4]dioxepine-7-carboxylic acid]
Second: O=C(O)CCc1cc(I)c(Oc2ccc(O)c(I)c2)c(I)c1 [3-[4-(4-hydroxy-3-iodophenoxy)-3,5-diiodophenyl]propanoic acid]
The pEC50 of the first is 0.28 log units lower: 5.09 for the first, 5.37 for the second.

`Cc1cc(C(=O)COC(=O)CCc2nc3ccccc3s2)c(C)n1C` [3-(1,3-benzothiazol-2-yl)propanoic acid [2-oxo-2-(1,2,5-trimethyl-3-pyrrolyl)ethyl] ester] and `Cc1ccc(OCCC(=O)OCC(=O)N2c3ccccc3CC2C)cc1` (centres undefined) [3-(4-methylphenoxy)propanoic acid [2-(2-methyl-2,3-dihydroindol-1-yl)-2-oxoethyl] ester] are within 0.2 log units of each other in pEC50: 5.71 for the first, 5.57 for the second.

First: Cc1ccccc1OCC(=O)NNC(=O)CCN1C(=O)c2ccccc2C1=O [3-(1,3-dioxo-2-isoindolyl)-N'-[2-(2-methylphenoxy)-1-oxoethyl]propanehydrazide]
Second: Cc1ccc(C(=O)O)cc1-c1ccc(C=C2NC(=O)N(c3ccccc3)C2=O)o1 [3-[5-[(E)-(2,5-dioxo-1-phenylimidazolidin-4-ylidene)methyl]furan-2-yl]-4-methylbenzoic acid]
The pEC50 of the first is 1.61 log units lower: 3.36 for the first, 4.97 for the second. The second is the more potent here.

Going from `Cc1ccc(/C=C2\SC(=S)N(c3c(C)n(C)n(-c4ccccc4)c3=O)C2=O)cc1` [3-(1,5-dimethyl-3-oxo-2-phenyl-2,3-dihydro-1H-pyrazol-4-yl)-5-(4-methylbenzylidene)-2-thioxo-1,3-thiazolidin-4-one] to `Cc1c(N=C2Nc3cccc4cccc2c34)c(=O)n(-c2ccccc2)n1C` [4-(2-benzo[cd]indolylamino)-1,5-dimethyl-2-phenyl-3-pyrazolone], the pEC50 rises from 5.64 to 6.13 (0.49 log units). The second is the more potent here.

First: O=C(NCCCCc1ccccc1)C1CC(c2ccccc2[N+](=O)[O-])=NO1 (centres undefined) [3-(2-nitrophenyl)-N-(4-phenylbutyl)-2-isoxazoline-5-carboxamide]
Second: COc1cc(OC)c(C2=NOC(C(=O)NCCc3ccccc3)C2)cc1Cl (centres undefined) [3-(5-chloranyl-2,4-dimethoxy-phenyl)-N-(2-phenylethyl)-4,5-dihydro-1,2-oxazole-5-carboxamide]
The pEC50 of the first is 0.93 log units higher: 5.26 for the first, 4.33 for the second.

Compared with `O=C(CCSCCc1ccccn1)Nc1ccc(Cc2ccncc2)cc1` [3-(2-pyridin-2-ylethylsulfanyl)-N-[4-(pyridin-4-ylmethyl)phenyl]propanamide], `O=C(Nc1ccc(Cc2ccncc2)cc1)c1cccc([N+](=O)[O-])c1` [3-Nitro-N-(4-pyridin-4-ylmethyl-phenyl)-benzamide] is 1.16 log units higher in pEC50: 4.14 for the first, 5.30 for the second. The second is the more potent here.

`O=S(=O)(NC1CCCC1)c1cccc(S(=O)(=O)N2CCC(n3nnc4ccccc43)CC2)c1` [3-(4-Benzotriazol-1-yl-piperidine-1-sulfonyl)-N-cyclopentyl-benzenesulfonamide] and `CCOc1cc(S(=O)(=O)NCc2ccccc2)ccc1F` [3-ethoxy-4-fluoranyl-N-(phenylmethyl)benzenesulfonamide] are within 0.2 log units of each other in pEC50: 5.39 for the first, 5.27 for the second.

Going from `CCN(CC)c1ccc2c(C)c(-c3ccc(N)cc3)c(=O)oc2c1` [3-(4-aminophenyl)-7-(diethylamino)-4-methyl-1-benzopyran-2-one] to `Cc1n[nH]c(O)c1C(c1ccc(-c2ccc(F)cc2)o1)c1c(C)n[nH]c1O` [4-[[5-(4-fluorophenyl)furan-2-yl]-(3-methyl-5-oxo-1,2-dihydropyrazol-4-yl)methyl]-5-methyl-1,2-dihydropyrazol-3-one], the pEC50 falls from 5.94 to 5.03 (0.91 log units). The first is the more potent here.

`CN1c2ccccc2Oc2nnc(N3CCN(Cc4ccccc4)CC3)cc21` [3-(4-benzylpiperazin-1-yl)-5-methylpyridazino[3,4-b][1,4]benzoxazine] and `O=C(Cn1cnc2c(nnn2Cc2ccc(F)cc2)c1=O)N1CCN(c2ccccc2)CC1` [3-(4-fluorobenzyl)-6-[2-keto-2-(4-phenylpiperazino)ethyl]triazolo[4,5-d]pyrimidin-7-one] are within 0.2 log units of each other in pEC50: 5.73 for the first, 5.78 for the second.

Going from `CCOc1ccc(C(CC(=O)O)NC(=O)C(Sc2ccccc2)c2ccccc2)cc1` (centres undefined) [3-(4-ethoxyphenyl)-3-[(2-phenyl-2-phenylsulfanyl-ethanoyl)amino]propanoic acid] to `O=C(O)CCn1c(SCc2cccc3ccccc23)nc2ccccc21` [3-[2-(1-naphthalenylmethylthio)-1-benzimidazolyl]propanoic acid], the pEC50 rises from 4.63 to 6.17 (1.54 log units). The second is the more potent here.

Compared with `CS/C(=N\Cc1ccc(F)cc1)NS(=O)(=O)c1cccs1` [3-(4-fluorobenzyl)-2-methyl-1-(2-thienylsulfonyl)isothiourea], `Fc1ccc(CSc2nncn2NC/C=C/c2ccccc2)cc1` [3-[(4-fluorobenzyl)thio]-N-(3-phenyl-2-propen-1-yl)-4H-1,2,4-triazol-4-amine] is 0.95 log units lower in pEC50: 6.30 for the first, 5.35 for the second. The first is the more potent here.

Going from `CCOc1ccc2nc(Sc3cc(O)n(-c4cccc(OC)c4)c3O)sc2c1` [3-(6-Ethoxy-benzothiazol-2-ylsulfanyl)-1-(3-methoxy-phenyl)-pyrrolidine-2,5-dione] to `COc1ccc(-c2cc(CCCC(=O)NCCc3ccccc3)no2)cc1` [4-[5-(4-methoxyphenyl)-1,2-oxazol-3-yl]-N-(2-phenylethyl)butanamide], the pEC50 rises from 4.96 to 6.19 (1.23 log units). The second is the more potent here.

Compared with `COC(=O)c1sccc1NC(=S)OC` [3-(methoxycarbothioylamino)thiophene-2-carboxylic acid methyl ester], `O=C(NC(=S)NNC(=O)c1cnccn1)c1ccc(Cl)cc1` [4-Chloro-N-[N'-(pyrazine-2-carbonyl)-hydrazinocarbothioyl]-benzamide] is 0.82 log units lower in pEC50: 5.83 for the first, 5.01 for the second. The first is the more potent here.

Going from `O=C(O)CCN(Cc1ccccc1)S(=O)(=O)c1c(Cl)cccc1Cl` [3-[(2,6-dichlorophenyl)sulfonyl-(phenylmethyl)amino]propanoic acid] to `Cc1ccc(S(=O)(=O)N(CCC(=O)O)Cc2ccc(Cl)cc2)cc1` [3-[(4-chlorobenzyl)-tosyl-amino]propionic acid], the pEC50 rises from 1.07 to 5.57 (4.50 log units).

Compared with `CC1(CCc2ccccc2)NC(=O)N(Cc2nnc(-c3ccccc3Br)o2)C1=O` (centres undefined) [3-[[5-(2-bromophenyl)-1,3,4-oxadiazol-2-yl]methyl]-5-methyl-5-(2-phenylethyl)imidazolidine-2,4-dione], `C=C(C)Cn1c(N2CCC(Cc3ccccc3)CC2)nc2c1c(=O)[nH]c(=O)n2C` [3-methyl-7-(2-methylprop-2-enyl)-8-[4-(phenylmethyl)-1-piperidinyl]purine-2,6-dione] is 0.42 log units lower in pEC50: 5.22 for the first, 4.80 for the second.

Going from `O=C(OCC(=O)N1CCN(C(=O)c2ccco2)CC1)c1sc2ccccc2c1Cl` [3-chloro-1-benzothiophene-2-carboxylic acid [2-[4-[2-furanyl(oxo)methyl]-1-piperazinyl]-2-oxoethyl] ester] to `O=C(c1cc(COc2c(F)cccc2F)on1)N1CCC(c2ccncc2)CC1` [4-[1-({5-[(2,6-difluorophenoxy)methyl]isoxazol-3-yl}carbonyl)piperidin-4-yl]pyridine], the pEC50 falls from 5.80 to 4.75 (1.05 log units). The first is the more potent here.

First: COCCNS(=O)(=O)c1ccc(-c2ccc(Cl)cc2)cc1 [4'-chloro-N-(2-methoxyethyl)-4-biphenylsulfonamide]
Second: COCCN1C(=O)/C(=C/c2ccc(OCc3ccc(C(=O)O)cc3)c(OC)c2)S/C1=N/c1ccccc1 [4-[(2-methoxy-4-{[3-(2-methoxyethyl)-4-oxo-2-(phenylimino)-1,3-thiazolidin-5-ylidene]methyl}phenoxy)methyl]benzoic acid]
The pEC50 of the first is 0.93 log units higher: 5.49 for the first, 4.56 for the second.

`CCOC(=O)c1cc2c(ccn2-c2ccc(F)cc2)n1CC(=O)NC(C)(C)C` [4-[2-(tert-butylamino)-2-keto-ethyl]-1-(4-fluorophenyl)pyrrolo[3,2-b]pyrrole-5-carboxylic acid ethyl ester] was tested, and the pEC50 was 4.72.

Same assay, conditions: inactive by the depositor's call

Going from `Cc1nn(-c2ccccc2)c2sc(C(=O)N(Cc3ccco3)C(C)C(=O)NC(C)(C)C)cc12` (centres undefined) [3-Methyl-1-phenyl-1H-thieno[2,3-c]pyrazole-5-carboxylic acid (1-tert-butylcarbamoyl-ethyl)-furan-2-ylmethyl-amide] to `O=C(Nc1ccn(Cc2ccccc2)n1)c1cccc(F)c1` [3-fluoranyl-N-[1-(phenylmethyl)pyrazol-3-yl]benzamide], the pEC50 rises from 4.48 to 5.35 (0.87 log units).
